According to patent US4117230A, “Hydantoin derivatives as therapeutic agents” (priority 1977, dated 1978):

Columns and labels:
[1] = test system: sorbitol accumulation in the sciatic nerve of streptozotocinized (i.e., diabetic) rats; assay: inhibition of sorbitol accumulation in the sciatic nerve of acutely streptozotocinized (diabetic) rats; type: in vivo, rat; conditions: measured at 27 h, vs untreated
Description: (§1) The activity of the compounds of the present invention, as agents for the control of chronic diabetic complications, is determined by their ability to successfully pass one or more of the following standard biological and/or pharmacological tests, viz., (1) measuring their ability to inhibit the enzyme activity of isolated aldose reductase; (2) measuring their ability to reduce or inhibit sorbitol accumulation in the sciatic nerve of acutely sterptozotocinized (i.e., diabetic) rats; (3) measuring their ability to reverse already-elevated sorbitol levels in the sciatic nerve and lens of chronic streptozotocin-induced diabetic rats; (4) measuring their ability to prevent or inhibit galactitol formation in the lens of acutely galactosemic rats, and (5) measuring their ability to delay cataract formation and reduce the severity of lens opacities in chronic galactosemic rats.
The following spiro-hydantoin compounds of Preparation C and Examples I-V, VII-IX, XI-XVII, XIX-XXV, XXVII and XXX-XXXIII, respectively, were tested for their ability to reduce or inhibit sorbitol accumulation in the sciatic nerve of streptozotocinized (i.e., diabetic) rats by the procedure essentially described in U.S. Pat. No. 3,821,383. In the present study, the amount of sorbitol accumulation in the sciatic nerves was measured 27 hours after induction of diabetes. The compounds were administered orally at the dose levels indicated at 4, 8 nd 24 hours following the administration of streptozotocin. The results obtained in this manner are presented below in terms of percent inhibition (%) afforded by the test compound as compared to the case where no compound was administered (i.e., the untreated animal where sorbitol levels normally rise from approximately […]. tissue to as high as […]. tissue in the 27-hour test period): […]

aldose reductase = target: T1, aldose reductase (Bos taurus, UniProt P16116); assay: inhibition of aldose reductase enzyme activity (procedure of S. Hayman et al., modified by K. Sestanj et al.); type: biochemical, calf; conditions: calf lens enzyme, read-out: Percent inhibition of aldose reductase enzyme activity; for inhibition at 100 µM: 10^-4 M; for inhibition at 10 µM: 10^-5 M; for inhibition at 1 µM: 10^-6 M; for inhibition at 0.1 µM: 10^-7 M
T1 construct: partially purified aldose reductose enzyme obtained from calf lens; from tissue; host or cells: calf lens
Description: as §1
Hayman et al., as described in the Journal of Biological Chemistry, Vol. 240, p. […] In every case, the substrate employed ws partially purified aldose reductose enzyme obtained from calf lens.

[2] = 5.0 mg./kg. orally at 4, 8 and 24 h after streptozotocin
[3] = 10 mg./kg. orally at 4, 8 and 24 h after streptozotocin
[4] = 2.5 mg./kg. orally at 4, 8 and 24 h after streptozotocin
[5] = 1.5 mg./kg. orally at 4, 8 and 24 h after streptozotocin

SMILES: O=C1NC(=O)C2(CCCc3ncccc32)N1 (centres unmarked) [Ex. XV, 7',8'-dihydro-spiro[imidazolidine-4,5'(6H)-quinoline]-2,5-dione]
- Percent inhibition of sorbitol accumulation in the sciatic nerve [1, 2]: 5%
- Percent inhibition of sorbitol accumulation in the sciatic nerve [1, 3]: 52%
- inhibition at 100 µM (aldose reductase): 83%
- inhibition at 10 µM (aldose reductase): 54%
- inhibition at 1 µM (aldose reductase): 9%
- inhibition at 0.1 µM (aldose reductase): -2%

SMILES: COc1ccc2c(c1)C1(CCC2)NC(=O)NC1=O (centres unmarked) [Ex. XVI, 3',4'-dihydro-7'-methoxy-spiro[imidazolidine-4,1'(2'H)naphthalene]-2,5-dione]
- Percent inhibition of sorbitol accumulation in the sciatic nerve [1, 2]: 25%
- Percent inhibition of sorbitol accumulation in the sciatic nerve [1, 3]: 44%
- inhibition at 100 µM (aldose reductase): 54%
- inhibition at 1 µM (aldose reductase): 23%

SMILES: COc1cc2c(cc1OC)C1(CCC2)NC(=O)NC1=O (centres unmarked) [Ex. XVII, 3',4'-dihydro-6',7'-dimethoxy-spiro[imidazolidine-4,1'-(2H)naphthalene]-2,5-dione]
- inhibition at 100 µM (aldose reductase): 82%
- inhibition at 10 µM (aldose reductase): 26%
- inhibition at 1 µM (aldose reductase): 8%
- inhibition at 0.1 µM (aldose reductase): 16%

SMILES: COc1ccc2c(c1)CCCC21NC(=O)NC1=O (centres unmarked) [Ex. XVIII, 3',4'-dihydro-6'-methoxy-spiro[imidazolidine-4,1'(2'H)naphthalene]-2,5-dione]
- inhibition at 100 µM (aldose reductase): 72%
- inhibition at 10 µM (aldose reductase): 38%
- inhibition at 1 µM (aldose reductase): 15%
- inhibition at 0.1 µM (aldose reductase): 7%

SMILES: O=C1NC(=O)C2(CCOc3ccccc32)N1 (centres unmarked) [Ex. XX, spiro[chroman-4,4'-imidazolidine]-2',5'-dione]
- Percent inhibition of sorbitol accumulation in the sciatic nerve [1, 4]: 34%
- Percent inhibition of sorbitol accumulation in the sciatic nerve [1, 2]: 58%
- Percent inhibition of sorbitol accumulation in the sciatic nerve [1, 3]: 77%
- inhibition at 100 µM (aldose reductase): 73%
- inhibition at 10 µM (aldose reductase): 64%
- inhibition at 1 µM (aldose reductase): -9%
- inhibition at 0.1 µM (aldose reductase): -16%

SMILES: COc1ccc2c(c1)C1(CCO2)NC(=O)NC1=O (centres unmarked) [Ex. XXI, 6-methoxy-spiro[chroman-4,4'-imidazolidine]-2',5'-dione]
- Percent inhibition of sorbitol accumulation in the sciatic nerve [1, 4]: 24%
- inhibition at 100 µM (aldose reductase): 100%
- inhibition at 10 µM (aldose reductase): 92%
- inhibition at 1 µM (aldose reductase): 35%
- inhibition at 0.1 µM (aldose reductase): 7%

SMILES: COc1cccc2c1CCCC21NC(=O)NC1=O (centres unmarked) [Ex. XXVI, 3',4'-dihydro-5'-methoxy-spiro[imidazolidine-4,1'(2'H)-naphthalene]-2,5-dione]
- inhibition at 100 µM (aldose reductase): 72%
- inhibition at 10 µM (aldose reductase): 49%
- inhibition at 1 µM (aldose reductase): 5%
- inhibition at 0.1 µM (aldose reductase): 0%

SMILES: O=C1NC(=O)C2(CCOc3c(Cl)cccc32)N1 (centres unmarked) [Ex. XXVII, 8-chloro-spiro-[chroman-4,4'-imidazolidine]-2',5'-dione]
- Percent inhibition of sorbitol accumulation in the sciatic nerve [1, 5]: 30%
- inhibition at 100 µM (aldose reductase): 87%
- inhibition at 10 µM (aldose reductase): 85%
- inhibition at 1 µM (aldose reductase): 52%
- inhibition at 0.1 µM (aldose reductase): 6%

SMILES: O=C1NC(=O)C2(CCOc3ccc(Br)cc32)N1 (centres unmarked) [Ex. XXVIII, 6-bromo-spiro-[chroman-4,4'-imidazolidine]-2',5'-dione]
- inhibition at 100 µM (aldose reductase): 74%

SMILES: O=C1NC(=O)C2(CC[S+]([O-])c3ccc(F)cc32)N1 (centres unmarked) [Ex. XXX, 6'-fluoro-spiro-[imidazolidine-4,4'-thiochroman]-2,5-dione-1'-oxide]
- Percent inhibition of sorbitol accumulation in the sciatic nerve [1, 5]: 35%
- inhibition at 100 µM (aldose reductase): 87%
- inhibition at 10 µM (aldose reductase): 80%
- inhibition at 1 µM (aldose reductase): 64%
- inhibition at 0.1 µM (aldose reductase): 16%

SMILES: O=C1NC(=O)C2(CCS(=O)(=O)c3ccc(F)cc32)N1 (centres unmarked) [Ex. XXXI, 6'-fluoro-spiro-[imidazolidine-4,4'-thiochroman]-2,5-dione-1',1'-dioxide]
- Percent inhibition of sorbitol accumulation in the sciatic nerve [1, 4]: 47%
- Percent inhibition of sorbitol accumulation in the sciatic nerve [1, 2]: 68%
- inhibition at 100 µM (aldose reductase): 85%
- inhibition at 10 µM (aldose reductase): 74%
- inhibition at 1 µM (aldose reductase): 74%
- inhibition at 0.1 µM (aldose reductase): 28%

SMILES: O=C1NC(=O)C2(CCS(=O)(=O)c3ccccc32)N1 (centres unmarked) [Ex. XXXII, spiro-[imidazolidine-4,4'-thiochroman]-2,5-dione-1',1'-dioxide]
- inhibition at 100 µM (aldose reductase): 94%
- inhibition at 10 µM (aldose reductase): 69%
- inhibition at 1 µM (aldose reductase): 31%
- inhibition at 0.1 µM (aldose reductase): 2%

SMILES: Cc1cc(C)c2c(c1)C1(CCO2)NC(=O)NC1=O (centres unmarked) [Ex. XXXIV, 6,8-dimethyl-spiro-[chroman-4,4'-imidazolidine]-2',5'-dione]
- inhibition at 100 µM (aldose reductase): 71%
- inhibition at 10 µM (aldose reductase): 84%
- inhibition at 1 µM (aldose reductase): 54%
- inhibition at 0.1 µM (aldose reductase): 17%
